Where two headings read alike, the source gives them in different places.
Legend:
human GPR40 = target: T1, human GPR40 (Homo sapiens, UniProt O14842); experiment: Activation of GPR40 protein: intracellular calcium change (Fluo-4, Flexstation 3) in transfected HEK-293 cells; type: cell-based; conditions: HEK-293 cells transfected with human GPR40
T1 construct: host or cells: HEK-293
Protocol: The activation of GPR40 protein by a novel 3-(4-(benzyloxy)phenyl)hex-4-ynoic acid derivative of the present invention was evaluated through the change in intracellular calcium concentration due to the activity of GPR40 protein. First, HEK-293 cells were transfected with human GPR40 DNA (Origene, RC218370) by using Fugene HD (Promega, E2311). […] After 24 hours, the cell culture medium was removed, and replaced with Dulbecco's Modified Eagle Medium (DMEM, 50 μl) supplemented with 1% fetal bovine serum (FBS). For the measurement of calcium concentration, 50 μL of Fluo-4 reagent (Invitrogen, F10471) was added to each well and cultured in a 37° C. incubator for 2 hours. […] Two hours after the initiation of the culture, the prepared samples were automatically injected into the cells using Flexstation 3 (Molecular Devices), and then, the change in intracellular calcium concentration was measured using SoftMax®Pro software for 120 seconds. Here, for a non-treated group, dimethylsulfoxide (DMSO) was injected into the cells to measure the change in calcium concentration. The GPR40 protein activity was calculated from the measured calcium concentration result values using equation 1 below, and the GPR40 activity (EC50 value) by the samples was obtained. […] GPR 40 activity=(intracellular calcium concentration increased by the sample)/(intracellular calcium concentration of the non-treated group)×100 [Equation 1]

Male Sprague Dawley rats = experiment: Oral glucose tolerance test (OGTT) 1; type: in vivo; conditions: Rattus norvegicus, 2 h; SD rats; 10 mg/kg oral; glucose 4 g/kg 30 minutes after; read-out: % AUC (reduction (%) of blood glucose AUC)
Protocol: Male Sprague Dawley rats aged 8-10 weeks old were acclimated for at least 7 days, and then only healthy animals were used for the oral glucose tolerance test (OGTT test). After fasting for 16-18 hours, five rats per group were randomly grouped and orally administered with the compounds prepared in Examples 2, 3, 4, 6, 9, 12, 14, 16, 25, 29, 36, 37, 41, 43, and 44 at a dose of 10 mg/kg each. Here, as for a non-treated group (vehicle), a solution (PEG 400/Tween 80/0.25% CMC, 5%/5%/90%, v/v/v) containing 5% polyethyleneglycol/5% tween 80/0.25% carboxymethylcelluluse (CMC) was orally administered at the same dose. Glucose (4 g/kg) was orally administered at a dose of 5 ml/kg 30 minutes after each sample was administered. Then, the blood glucose was measured by using Accu-chek active strip (Roche diagnostic Co.).

[1] = intracellular calcium, read-out: EC50
[2] = values in text, read-out: concentration activating the GPR40 protein by 50% (EC50)

T1 sequence (O14842 whole entry): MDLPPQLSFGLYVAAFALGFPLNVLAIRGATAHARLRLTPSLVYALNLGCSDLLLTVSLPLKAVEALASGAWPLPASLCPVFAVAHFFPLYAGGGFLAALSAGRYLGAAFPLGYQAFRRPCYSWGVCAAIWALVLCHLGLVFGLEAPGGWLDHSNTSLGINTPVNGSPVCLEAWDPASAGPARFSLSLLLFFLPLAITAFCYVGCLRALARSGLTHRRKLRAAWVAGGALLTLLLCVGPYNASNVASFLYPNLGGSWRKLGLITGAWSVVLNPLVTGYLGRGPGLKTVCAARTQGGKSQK

Row | Compound | EC50 (human GPR40; [1]) | EC50 (human GPR40; [2]) | inhibition in vivo at 10 mg/kg (Male Sprague Dawley rats)
1 | potassium (S)-3-(4-(4-((4-(4-(trifluoromethyl)phenyl)piperazin-1-yl)methyl)benzyloxy)phenyl)hex-4-ynoate [Example 24] | 200 to 300 nM |  | 
2 | CC#CC(CC(=O)O)c1ccc(OCc2ccc(CN3CCN(c4ccccc4)CC3)cc2)cc1 (stereo not shown) [Example 15, 3-(4-(4-((4-phenylpiperazin-1-yl)methyl)benzyloxy)phenyl)hex-4-ynoic acid] | > 300 nM |  | 
3 | CC#CC(CC(=O)O)c1ccc(OCc2ccc(C3=CCC4(CC3)OCCO4)cc2)cc1 (stereo not shown) [Example 3] |  |  | 12.5%
4 | CC#C[C@@H](CC(=O)O)c1ccc(OCc2ccc(CN3CCN(c4ccc(C#N)cn4)CC3)cc2)cc1 [Example 45, (S)-3-(4-(4-((4-(5-cyanopyridin-2-yl)piperazin-1-yl)methyl)benzyloxy)phenyl)hex-4-ynoic acid] | > 300 nM |  | 
5 | CC#C[C@@H](CC(=O)O)c1ccc(OCc2ccc(CN3CCN(c4ccc(OCOC)cc4)CC3)cc2)cc1 [Example 29, (S)-3-(4-(4-((4-(4-(methoxymethoxy)phenyl)piperazin-1-yl)methyl)benzyloxy)phenyl)hex-4-ynoic acid] |  |  | 27.1%
6 | CC#C[C@@H](CC(=O)O)c1ccc(OCc2ccc(CN3CCC(c4ccccc4)CC3)cc2)cc1 [Example 26, (S)-3-(4-(4-((4-phenylpiperidin-1-yl)methyl)benzyloxy)phenyl)hex-4-ynoic acid] | > 300 nM |  | 
7 | CC#CC(CC(=O)O)c1ccc(OCc2ccc(CN3CCc4ccccc4C3)c(C3=CCCCC3)c2)cc1 (stereo not shown) [Example 13, 3-(4-(3-cyclohexenyl-4-((3,4-dihydroisoquinolin-2(1H)-yl)methyl)benzyloxy)phenyl)hex-4-ynoic acid] | > 300 nM |  | 
8 | CC#C[C@@H](CC(=O)O)c1ccc(OCc2ccc(CN3CCN(c4ccc(C(F)(F)F)cc4)CC3)cc2)cc1 [Example 22, (S)-3-(4-(4-((4-(4-(trifluoromethyl)phenyl)piperazin-1-yl)methyl)benzyloxy)phenyl)hex-4-ynoic acid] | > 300 nM |  | 
9 | CC#C[C@@H](CC(=O)O)c1ccc(OCc2ccc(CCN3CCc4cc(OC)ccc4C3)cc2)cc1 [Example 48, (S)-3-(4-(4-(2-(6-methoxy-3,4-dihydroisoquinolin-2(1H)-yl)ethyl)benzyloxy)phenyl)hex-4-ynoic acid] | > 300 nM |  | 
10 | CC#CC(CC(=O)O)c1ccc(OCc2ccc(CN3CCC(c4ccccc4)CC3)cc2)cc1 (stereo not shown) [Example 17, 3-(4-(4-((4-phenylpiperidin-1-yl)methyl)benzyloxy)phenyl)hex-4-ynoic acid] | > 300 nM |  | 
11 | CC#C[C@@H](CC(=O)O)c1ccc(OCc2ccc(CN3CC=C(c4ccc(OCCCS(C)(=O)=O)cc4)CC3)cc2)cc1 [Example 33, (S)-3-(4-(4-((4-(4-(3-(methylsulfonyl)propoxy)phenyl)-5,6-dihydropyridin-1(2H)-yl)methyl)benzyloxy)phenyl)hex-4-ynoic acid] | > 300 nM |  | 
12 | CC#C[C@@H](CC(=O)O)c1ccc(OCc2ccc(C(C)N3CCc4ccccc4C3)cc2)cc1 (stereo partly drawn) [Example 34, (3S)-3-(4-(4-(1-(3,4-dihydroisoquinolin-2(1H)-yl)ethyl)benzyloxy)phenyl)hex-4-ynoic acid] | > 300 nM |  | 
13 | CC#C[C@H](CC(=O)O)c1ccc(OCc2cccc(C3=CCC4(CC3)OCCO4)c2)cc1 [Example 10, L-lysine (3R)-3-(4-(3-(1,4-dioxaspiro[4.5]dec-7-en-8-yl)benzyloxy)phenyl)hex-4-ynoate] | > 300 nM |  | 
14 | CC#C[C@H](CC(=O)O)c1ccc(OCc2cccc(C3=CCC4(CC3)OCCO4)c2)cc1 [Example 8, (3R)-3-(4-(3-(1,4-dioxaspiro[4.5]dec-7-en-8-yl)benzyloxy)phenyl)hex-4-ynoic acid] | > 300 nM |  | 
15 | CC#C[C@@H](CC(=O)O)c1ccc(OCc2ccc(CN3Cc4ccccc4C3)cc2)cc1 [Example 37, sodium (S)-3-(4-(4-(isoindolin-2-ylmethyl)benzyloxy)phenyl)hex-4-ynoate] |  |  | 28.5%
16 | CC#CC(CC(=O)O)c1ccc(OCc2cccc(C3=CCC(O)CC3)c2)cc1 [Example 6, L-lysine 3-(4-(3-(4-hydroxycyclohex-1-enyl)benzyloxy)phenyl)hex-4-ynoate] |  |  | 15.2%
17 | CC#C[C@@H](CC(=O)O)c1ccc(OCc2ccc(CN3CCC(c4ccccc4)C3)cc2)cc1 (stereo partly drawn) [Example 46, (3S)-3-(4-(4-((3-phenylpyrrolidin-1-yl)methyl)benzyloxy)phenyl)hex-4-ynoic acid] | > 300 nM |  | 
18 | CC#CC(CC(=O)O)c1ccc(OCc2ccc(CN3CCN(c4ccc(OCCCS(C)(=O)=O)cc4)CC3)cc2)cc1 (stereo not shown) [Example 20, 3-(4-(4-((4-(4-(3-(methylsulfonyl)propoxy)phenyl)piperazin-1-yl)methyl)benzyloxy)phenyl)hex-4-ynoic acid] | > 300 nM |  | 

Now from value to compound, other results behind:

Row | EC50 (human GPR40; [1]) | EC50 (human GPR40; [2]) | Compound | inhibition in vivo at 10 mg/kg (Male Sprague Dawley rats)
19 | > 300 nM |  | CC#CC(CC(=O)O)c1ccc(OCc2cccc(C3=CCC4(CC3)OCCO4)c2)cc1 (stereo not shown) [Example 1, 3-(4-(3-(1,4-dioxaspiro[4.5]dec-7-en-8-yl)benzyloxy)phenyl)hex-4-ynoic acid] | 
20 | > 300 nM |  | CC#CC(CC(=O)O)c1ccc(OCc2ccc(CN3CCN(c4ccc(C(F)(F)F)cc4)CC3)cc2)cc1 (stereo not shown) [Example 19, 3-(4-(4-((4-(4-(trifluoromethyl)phenyl)piperazin-1-yl)methyl)benzyloxy)phenyl)hex-4-ynoic acid] | 
21 | > 300 nM |  | CC#C[C@@H](CC(=O)O)c1ccc(OCc2ccc(CN3CC=C(c4ccc(S(C)(=O)=O)cc4)CC3)cc2)cc1 [Example 32, (S)-3-(4-(4-((4-(4-(methylsulfonyl)phenyl)-5,6-dihydropyridin-1(2H)-yl)methyl)benzyloxy)phenyl)hex-4-ynoic acid] | 
22 | > 300 nM |  | CC#C[C@@H](CC(=O)O)c1ccc(OCc2ccc(CCN3Cc4ccccc4C3)cc2)cc1 [Example 49, (S)-3-(4-(4-(2-(isoindolin-2-yl)ethyl)benzyloxy)phenyl)hex-4-ynoic acid] | 
23 | > 300 nM |  | CC#C[C@@H](CC(=O)O)c1ccc(OCc2ccc(CCN3CCc4ccccc4C3)cc2)cc1 [Example 50, (S)-3-(4-(4-(2-(3,4-dihydroisoquinolin-2(1H)-yl)ethyl)benzyloxy)phenyl)hex-4-ynoic acid] | 
24 | < 200 nM | ≤ 200 nM | CC#C[C@@H](CC(=O)O)c1ccc(OCc2cccc(C3=CCC4(CC3)OCCO4)c2)cc1 [Example 7, (3S)-3-(4-(3-(1,4-dioxaspiro[4.5]dec-7-en-8-yl)benzyloxy)phenyl)hex-4-ynoic Acid] | 
25 | > 300 nM |  | CC#C[C@@H](CC(=O)O)c1ccc(OCc2ccc(CN3CCN(c4ccc(O)cc4)CC3)cc2)cc1 [Example 35, (S)-3-(4-(4-((4-(4-hydroxyphenyl)piperazin-1-yl)methyl)benzyloxy)phenyl)hex-4-ynoic acid] | 
26 | > 300 nM |  | CC#CC(CC(=O)O)c1ccc(OCc2ccc(CN3CCN(c4ccc(F)cc4)CC3)cc2)cc1 (stereo not shown) [Example 18, 3-(4-(4-((4-(4-fluorophenyl)piperazin-1-yl)methyl)benzyloxy)phenyl)hex-4-ynoic acid] | 
27 | < 200 nM | ≤ 200 nM | CC#C[C@@H](CC(=O)O)c1ccc(OCc2ccc(CN3CC=C(c4ccccc4)CC3)cc2)cc1 [Example 28, (S)-3-(4-(4-((4-phenyl-5,6-dihydropyridin-1(2H)-yl)methyl)benzyloxy)phenyl)hex-4-ynoic acid] | 
28 | < 200 nM | ≤ 200 nM | CC#C[C@@H](CC(=O)O)c1ccc(OCc2ccc(CN3Cc4ccccc4C3)cc2)cc1 [Example 27, (S)-3-(4-(4-(isoindolin-2-ylmethyl)benzyloxy)phenyl)hex-4-ynoic acid] | 
